Test results published in US7618958B2, “Stereospecific anxiolytic and anticonvulsant agents with reduced muscle-relaxant, sedative-hypnotic and ataxic effects” (WISYS Technology Foundation, Inc., priority 2004, dated 2009).

Columns and labels:
α2β3γ2 GABAA receptors = biological target: T1, α2β3γ2 GABAA receptors (Rattus norvegicus, UniProt P18508+P23576); experiment: Two-electrode voltage clamp in Xenopus oocytes, α2β3γ2; assay type: cell-based; conditions: FIG. 1, Xenopus oocytes
T1 construct: expressed in transfected cells; host or cells: Xenopus laevis oocytes injected with cRNA
Description: (§1) 1. Effects of SH-053-S—CH3 8 on GABA(A) receptors were tested by two-electrode voltage clamp experiments in cRNA injected Xenopus oocytes that functionally expressed several subtype combinations of GABAA receptors. […] This oocyte profile is indicative of an anxiolytic agent devoid of sedative, ataxic and anterograde amnestic side effects.
(§2) The methods were based on those published previously. See Li, X., et al., (2003) J. Med. Chem. 46: 5567-5570.
(§3) Cloning of GABAA receptor subunits α1, β3 and γ2 into pCDM8 expression vectors (Invitrogen, CA) has been described elsewhere ([…]). GABAA receptor subunit α4 was cloned in an analogous way. cDNAs for subunits α2, α3 and α5 were gifts from P. Malherbe and were subcloned into pCI-vector (Li, et al., 2003). cDNA for subunit α6 was a gift from P. Seeburg and was subcloned into the vector pGEM-3Z (Promega). After linearizing the cDNA vectors with appropriate restriction endonucleases, capped transcripts were produced using the mMessage mMachine T7 transcription kit (Ambion, Tex.). The capped transcripts were polyadenylated using yeast poly(A) polymerase (USB, OH) and were diluted and stored in diethylpyrocarbonate-treated water at −70° C. (Li, et al., 2003). […]

α3β3γ2 GABAA receptors = biological target: T2, α3β3γ2 GABAA receptors (Rattus norvegicus, UniProt P18508+P20236); experiment: Two-electrode voltage clamp in Xenopus oocytes, α3β3γ2; assay type: cell-based; conditions: FIG. 1, Xenopus oocytes
T2 construct: expressed in transfected cells; host or cells: Xenopus laevis oocytes injected with cRNA
Description: as §1, §2, §3

α1β3γ2 GABAA receptors = biological target: T3, α1β3γ2 GABAA receptors (Rattus norvegicus, UniProt P18508+P62813); experiment: Two-electrode voltage clamp in Xenopus oocytes, α1β3γ2; assay type: cell-based; conditions: FIG. 1, Xenopus oocytes
T3 construct: expressed in transfected cells; host or cells: Xenopus laevis oocytes injected with cRNA
Description: as §1, §2, §3

Male BALB/c mice [1] = experiment: Light/dark test in mice; assay type: in vivo, mouse; conditions: ip, FIG. 2 A, *p<0.05 vs. vehicle
Description: (§4) Male BALB/c mice approximately 8 to 10 weeks old (18-25 grams) served as subjects in the locomotor activity and light/dark assays. Animals were housed in groups of four on a 14 hour light/10 hour dark cycle and were given free access to food and water. All experiments were conducted during the animals' light cycle (0800-1700).
(§5) Behavioral testing was conducted in an illuminated open field chamber (11.0″×11.0″; Med Associates MED-OFA-510) equipped with infrared beams and sensors which was placed in a sound attenuating cubicle. Horizontal locomotor activity was measured by recording the total number of beams crossed in a 60 minute period. Anxiolytic-like behavior was assessed using the same chambers with the addition of a Plexiglas insert that is opaque to visible light creating separate darkened and illuminated sides (5.5″×11.0″) of the chamber. An opening in the middle of the dark insert allowed the animals to move freely between each side of the chamber. Animals were place in the center of the illuminated side of the chamber and allowed to freely explore for 10 minutes. The amount of time (sec) that the animals spent in each side of the chamber was recorded. Data were analyzed using one-way analysis of variance and Bonferroni t-tests.
Vehicle and doses of SH-053-S—CH3 8 (10.0-100.0 mg/kg) and SH-053-R-CH3 29 (56.0 mg/kg) were tested in the light/dark and locomotor activity assays. […]

Male BALB/c mice [2] = experiment: Locomotor activity in mice; assay type: in vivo, mouse; conditions: ip
Description: as §4, §5
Vehicle and doses of SH-053-S—CH3 8 (10.0-100.0 mg/kg) and SH-053-R-CH3 29 (56.0 mg/kg) were tested in the light/dark and locomotor activity assays. All drugs were administered intraperitoneally (ip) 30 minutes before each test in volumes of approximately 1 ml/kg. Drugs were dissolved in varying amounts of 95% ethanol (5-10%), propylene glycol and sterile water and diluted to the desired concentration with a solution of 50% propylene glycol and 50% sterile water.

T2 sequence (P20236 29-493): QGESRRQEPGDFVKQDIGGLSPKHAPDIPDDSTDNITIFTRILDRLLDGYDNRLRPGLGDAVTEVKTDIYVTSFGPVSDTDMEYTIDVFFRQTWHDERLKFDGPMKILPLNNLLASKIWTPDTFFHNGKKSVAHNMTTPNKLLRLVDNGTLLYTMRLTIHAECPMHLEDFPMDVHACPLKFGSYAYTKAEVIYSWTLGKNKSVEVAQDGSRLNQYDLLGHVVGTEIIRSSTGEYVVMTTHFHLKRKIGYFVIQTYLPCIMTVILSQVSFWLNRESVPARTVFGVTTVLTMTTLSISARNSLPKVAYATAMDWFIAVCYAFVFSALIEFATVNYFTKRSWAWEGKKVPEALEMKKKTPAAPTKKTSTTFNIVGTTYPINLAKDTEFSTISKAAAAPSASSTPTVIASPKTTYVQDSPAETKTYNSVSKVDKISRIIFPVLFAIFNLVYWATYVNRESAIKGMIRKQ
T2 sequence (P63079 26-473 partner): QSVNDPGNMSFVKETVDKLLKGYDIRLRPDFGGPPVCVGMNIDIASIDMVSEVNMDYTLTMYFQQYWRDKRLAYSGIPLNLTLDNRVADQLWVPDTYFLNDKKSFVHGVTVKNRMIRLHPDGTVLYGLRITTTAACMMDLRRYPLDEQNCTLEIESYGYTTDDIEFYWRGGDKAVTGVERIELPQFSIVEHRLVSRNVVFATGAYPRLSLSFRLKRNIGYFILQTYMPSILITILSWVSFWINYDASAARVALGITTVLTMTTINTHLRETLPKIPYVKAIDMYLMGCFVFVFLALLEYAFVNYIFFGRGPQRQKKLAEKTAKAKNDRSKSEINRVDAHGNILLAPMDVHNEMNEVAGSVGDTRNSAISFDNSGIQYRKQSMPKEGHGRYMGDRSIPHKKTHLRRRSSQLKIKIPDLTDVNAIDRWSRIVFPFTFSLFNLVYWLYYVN
T2 sequence (P18508 39-466): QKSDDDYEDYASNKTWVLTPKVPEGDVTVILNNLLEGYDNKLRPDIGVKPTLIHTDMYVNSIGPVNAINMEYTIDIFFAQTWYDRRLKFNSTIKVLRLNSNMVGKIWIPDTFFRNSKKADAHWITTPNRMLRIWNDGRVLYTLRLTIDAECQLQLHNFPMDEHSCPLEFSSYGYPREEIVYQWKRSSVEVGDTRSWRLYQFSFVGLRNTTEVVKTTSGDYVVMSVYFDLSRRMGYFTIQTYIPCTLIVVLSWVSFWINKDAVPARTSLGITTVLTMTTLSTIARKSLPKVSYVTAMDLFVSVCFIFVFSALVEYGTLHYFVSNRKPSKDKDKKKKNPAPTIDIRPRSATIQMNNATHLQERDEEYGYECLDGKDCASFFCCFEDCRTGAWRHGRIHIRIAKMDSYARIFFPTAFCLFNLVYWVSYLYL
T1 sequence (P23576 29-451): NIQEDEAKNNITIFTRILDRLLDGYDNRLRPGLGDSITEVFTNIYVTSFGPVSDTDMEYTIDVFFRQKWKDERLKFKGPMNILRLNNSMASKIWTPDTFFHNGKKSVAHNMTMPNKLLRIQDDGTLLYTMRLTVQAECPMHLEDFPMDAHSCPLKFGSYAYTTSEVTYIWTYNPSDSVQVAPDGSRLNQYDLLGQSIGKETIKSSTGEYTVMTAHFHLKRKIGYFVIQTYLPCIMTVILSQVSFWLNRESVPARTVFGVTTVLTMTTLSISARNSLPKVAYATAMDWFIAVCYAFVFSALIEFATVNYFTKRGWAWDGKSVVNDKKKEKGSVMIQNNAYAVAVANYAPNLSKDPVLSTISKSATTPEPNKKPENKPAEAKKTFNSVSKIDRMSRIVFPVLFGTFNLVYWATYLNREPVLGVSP
T1 sequence (P63079 26-473 partner): as the sequence (P63079 26-473 partner) above
T1 sequence (P18508 39-466): as the sequence (P18508 39-466) above
T3 sequence (P62813 28-455): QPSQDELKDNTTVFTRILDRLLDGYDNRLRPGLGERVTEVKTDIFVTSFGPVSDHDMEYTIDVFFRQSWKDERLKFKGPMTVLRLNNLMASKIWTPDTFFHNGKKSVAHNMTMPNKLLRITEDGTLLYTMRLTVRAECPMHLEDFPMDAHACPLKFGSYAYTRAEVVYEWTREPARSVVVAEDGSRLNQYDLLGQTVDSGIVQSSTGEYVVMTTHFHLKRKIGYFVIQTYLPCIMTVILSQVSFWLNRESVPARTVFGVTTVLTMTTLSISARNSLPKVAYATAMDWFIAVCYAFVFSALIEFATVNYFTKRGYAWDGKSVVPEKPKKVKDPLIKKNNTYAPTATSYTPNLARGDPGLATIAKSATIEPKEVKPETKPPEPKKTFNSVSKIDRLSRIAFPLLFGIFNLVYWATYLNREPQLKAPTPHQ
T3 sequence (P63079 26-473 partner): as the sequence (P63079 26-473 partner) above
T3 sequence (P18508 39-466): as the sequence (P18508 39-466) above

C#Cc1ccc2c(c1)C(c1ccccc1)=NC(C)c1c(C(=O)OCC)ncn1-2 (centres unmarked) [SH-053-S—CH3, 8-Ethynyl-4-methyl-6-phenyl-4H-2,5,10b-triaza-benzo[e]azulene-3-carboxylic acid ethyl ester]
efficacy at α2β3γ2 subtypes (α2β3γ2 GABAA receptors): agonist | efficacy at α3β3γ2 subtypes (α3β3γ2 GABAA receptors): agonist | efficacy at α1β3γ2 subtypes (α1β3γ2 GABAA receptors): almost no efficacy | time spent in the lighted chamber in the light/dark test (Male BALB/c mice [1]): increased time spent in the lighted chamber | locomotor activity (Male BALB/c mice [2]; 56 mg/kg): did not suppress locomotor activity | locomotor activity (Male BALB/c mice [2]; 100 mg/kg): did not suppress locomotor activity in any significant fashion | locomotor activity (Male BALB/c mice [2]; FIG. 2 B): No effects on locomotor activity were observed | melting point: 197 to 199 °C
